What follows are compounds tested on LAB-1 (assay: Antibiotic sensitivity testing of LAB-1). Conditions: LAB-1 organism.
Type: cell-based
Experimental: A variety of biochemical tests were performed in order to identify the species and the genus of organism. The tests included: assessment of growth conditions, culture appearance, cell appearance and staining characteristics, optimal temperature and pH growth range, oxygen requirements, antibiotic sensitivity testing, tests for catalase and oxidase (using TAXOS N ? disks), amino acid utilization as carbon source, nitrogen fixation, motility test, and a variety of commercially available tests from MICRO-ID ? , OXYFERM ? , ENTEROTUBE ? and BIOLOG GN MICROPLATE ? .
For Polymyxin B, the “Antibiotic Susceptibility Results” value was “sensitive”.
In the case of `NCC[C@H](O)C(=O)N[C@@H]1C[C@H](N)[C@@H](O[C@H]2O[C@H](CN)[C@@H](O)[C@H](O)[C@H]2O)[C@H](O)[C@H]1O[C@H]1O[C@H](CO)[C@@H](O)[C@H](N)[C@H]1O` [Amikacin], the “Antibiotic Susceptibility Results” value is reported as “sensitive”.
With Neomycin the “Antibiotic Susceptibility Results” value was “sensitive”.
With Penicillin the “Antibiotic Susceptibility Results” value was “resistant”.
`CO[C@@H]1[C@@H](OC(N)=O)[C@@H](O)[C@H](Oc2ccc3c(O)c(NC(=O)c4ccc(O)c(CC=C(C)C)c4)c(=O)oc3c2C)OC1(C)C` [Novobiocin] was tested, and the “Antibiotic Susceptibility Results” value was “sensitive”.
In the case of `CC1(C)S[C@@H]2[C@H](NC(=O)[C@H](N)c3ccccc3)C(=O)N2[C@H]1C(=O)O` [Ampicillin], the “Antibiotic Susceptibility Results” value is reported as “resistant”.
In the case of `[H]/N=C(/N)N[C@H]1[C@H](O)[C@@H](O)[C@H](O[C@@H]2O[C@@H](C)[C@](O)(C=O)[C@H]2O[C@@H]2O[C@@H](CO)[C@H](O)[C@@H](O)[C@@H]2NC)[C@@H](N/C(N)=N\[H])[C@@H]1O` [Streptomycin], the “Antibiotic Susceptibility Results” value is reported as “resistant”.
For `CC[C@H]1OC(=O)[C@H](C)[C@@H](O[C@H]2C[C@@](C)(OC)[C@@H](O)[C@H](C)O2)[C@H](C)[C@@H](O[C@@H]2O[C@H](C)C[C@H](N(C)C)[C@H]2O)[C@](C)(O)C[C@@H](C)C(=O)[C@H](C)[C@@H](O)[C@]1(C)O` [Erythromycin], the “Antibiotic Susceptibility Results” value was “resistant”.
